Among the data in a melting point compilation (Tetko et al.; mined from patent text by program, amines drawn as free bases though some values may be those of a salt) are melting point values, retold here.

Each structure is given as a SMILES string.

One may read the melting point as the temperature of the solid-liquid transition. `O=C(Cc1ccc(NC(=O)c2cn3c4c(cccc24)CCC3)cc1)NO` came in with a melting point of 199 to 202 °C. With `Cc1cc(NC(=O)c2cccc(CSc3cnccn3)c2)ccc1C(C)C`, the melting point was 69 to 73 °C.

In turn, `CCN1CCN(CCCOc2cc3ncc(C#N)c(Nc4ccc(Sc5nccn5C)c(Cl)c4)c3cc2OCCOC)CC1` had a melting point of 188 to 190 °C. For the molecule `COc1ccc(C2=NN(C3CCN(C(=O)CCCOc4ccc5[nH]c(=O)ccc5c4)CC3)C(=O)[C@@H]3CC=CC[C@H]23)cc1OC`, the melting point was in the range of 146 to 149 °C.

For the molecule `CCN(C)C(=O)c1cnn(-c2cccc(C#N)c2)c1C#N`, the melting point was in the range of 185 to 187 °C. The figure for `COc1cc2cc3c(nc2cc1OC)CCc1cc(Cl)ccc1-3` is 197 °C; for `CCCCc1nn(-c2cc(NC(=O)CC)ccc2Cl)c(=O)n1Cc1ccc(-c2ccccc2S(=O)(=O)NC(=O)c2ccccc2Cl)cc1F` it is greater than 152 °C; for `COc1cc2cnn(CCCCl)c(=O)c2cc1OC` it is 185 to 187 °C.

The molecule `CC(=O)Nc1ccc(OC(=O)COCc2ccccc2)cc1` registered a melting point of 106 to 109 °C. In turn, `COC(=O)c1ccc(OCCNC(=O)C2Cc3ccccc3N2S(=O)(=O)c2ccc(-c3ccc(F)cc3)cc2)cc1Cl` (centres undefined) returned a melting point of 70 to 79 °C. As for `CCCCCCCCC(=O)NCc1ccc(C(=O)O)cc1`, the melting point was in the range of 178 to 180 °C. The figure for `NC(=O)c1ccc2[nH]cc(CCCCN3CC=C(c4ccccc4)CC3)c2c1` is 200 to 205 °C.

For `CN1CCN(c2cc(Cl)cc3c2c(=O)n(Cc2cccc([N+](=O)[O-])c2)c(=O)n3Cc2ccccc2)CC1`, the melting point was 200 to 205 °C. Then `N#CC1(N2CCN(c3ccccc3)CC2)CCCCC1`, with 133 to 135 °C; and `CCOC(=Nc1cccc(C(F)(F)F)c1)C(C)C`, with 95 to 100 °C. For `CN(N)C(=O)NCC(F)F`, the melting point lay within 81 to 84 °C.

As for `NC(=O)CCSSSSCCC(N)=O`, the melting point is 127 °C. On to `CC(C)(C)[N+]([O-])=Cc1cc(Cl)ccc1O`, for which the melting point worked out at 143 °C. With `COc1cc(Cl)c(-n2nnc3c(-c4ccccc4C)nc(C)nc32)c(OC)c1`, the melting point was in the range of 173 to 174 °C. Take `O=C(NC1CC1)[C@@H]1CN(C(=O)OCc2ccccc2)C[C@H]1O`: the melting point was 132 to 133 °C. The molecule `COc1ccc(-c2n[nH]c3c2C(O)c2ccccc2-3)cc1OC` (centres undefined) yielded a melting point of 197 to 199 °C.

The molecule `CC(=O)Nc1cc(N)c(Cl)cc1F` yielded a melting point of 142 to 143 °C. In turn, `NC(=O)COc1ccc2c(-c3ccccc3F)noc2c1Cl` returned a melting point of 172 °C. Molecule `CCCOc1cc2nc(Cl)nc(Cl)c2cc1OC` registered a melting point of 118 to 120 °C.

In turn, `CCCc1cc2ccc(CC(=O)OC)cc2n1C(C)=O` registered a melting point of 85 to 87 °C. The molecule `CN(C)S(=O)(=O)n1cc(-c2ccccc2[N+](=O)[O-])nc1C#N` returned a melting point of 111 to 114 °C. For the molecule `Nc1cc(C(=O)O)cc(OCc2ccc(Cl)cc2)c1Cc1ccccc1`, the melting point fell in the range of 199 to 200 °C. The molecule `O=C(CNC(=O)C(Cc1ccccc1)P(=O)(O)O)OCc1ccccc1` (centres undefined) had a melting point of 208 to 228 °C. In turn, `Oc1cccc(Oc2ccc(Cl)nn2)c1` gave a melting point of 185 to 187 °C.

As for `COc1cc2c(cc1Cl)CCN(C)C[C@H]2c1ccccc1`, the melting point fell in the range of 91 to 92 °C. The molecule `Cc1c2c(c(C)c3c1NC(C)(C)C3)OC(C)(CI)C2` (centres undefined) had a melting point of 100 to 104 °C. The figure for `N#Cc1ccccc1-c1cc(-c2cnc3nc(C(F)(F)F)cnn23)ccc1F` is 168 to 174 °C; for `Cc1nc2ccc3c(c2o1)C(CCNC(=O)C1CC1)CC3` (centres undefined) it is 134 to 137 °C. `CCS(=O)c1ccc(-c2nc3n(c2-c2ccncc2)CCC3)cc1` (centres undefined) registered a melting point of 108 to 110 °C.

`CSCCn1c(C)nc2c(N)nc3ccccc3c21` showed a melting point of 193 to 195 °C.

As to `COc1ccc(C(NCc2cccc(F)c2)c2cccc(Nc3c(N)c(=O)c3=O)c2)cc1` (centres undefined), the melting point lay within 209 to 212 °C. Molecule `CC(C)(C)OC(=O)N1CCCC2(CCN(c3ccc4nc(-c5ccc(F)cc5)c(-c5ccnc6[nH]ccc56)n4n3)CC2)C1` registered a melting point of 192 to 193 °C. Then `COc1c(O)cc(F)cc1-c1c(Cl)cccc1Cl`, with 65 to 67 °C. For the molecule `CC(=O)Oc1ccc2sc(S(N)(=O)=O)cc2c1`, the melting point lay in the range of 129 to 132 °C. Take `O=C(O)C1=Cc2cc(C(=O)Cc3ccccc3)ccc2OC1C(F)(F)F` (centres undefined): the melting point was 159 to 164 °C.

Turning to `Nc1nc2ccc(SC(F)(F)F)cc2s1`, the melting point came to 155 °C.

Consider `COc1cc2cc(C3=NNC(=O)CC3C)sc2cc1OC` (centres undefined), for which the melting point was in the range of 204 to 206 °C. Then `CCCc1c(CSc2ncccc2OCC(=O)O)ccc(C(C)=O)c1O`, with 157 °C; and `CCOC(C)=CC(=O)Nc1ccc(Cl)c(Cl)c1`, with 126 °C.

The molecule `OC(c1ccccc1)C(NCc1ccco1)c1ccccc1` (centres undefined) displayed a melting point of 141 to 144 °C. `NCCCCc1c[nH]c(-c2ccc(F)cc2)c1-c1ccncc1` had a melting point of 185 to 187 °C. `O=C(CCl)NCC1(c2ccc(Cl)c(Cl)c2)CCC1` gave a melting point of 104 to 105 °C. `Fc1ccc2[nH]cc(CCCN3CCN(c4cccc(Cl)c4Cl)CC3)c2c1` registered a melting point of 147 to 148 °C.

In turn, `CCOCc1nc2c(N)nc3cc(OCc4ccccc4)ccc3c2n1CCCCN1CCCS1(=O)=O` yielded a melting point of 225 to 227 °C. In turn, `O=C1NC(=O)C(c2c3n(c4ccccc24)CCC(CO)C3)=C1c1cccc(C(F)(F)F)c1` (centres undefined) displayed a melting point of 77 to 79 °C. The molecule `Cn1cc(C(=O)C(C)(C)C)c(=O)c(-c2cccc(C(F)(F)F)c2)c1` gave a melting point of 86 to 88 °C. Then `COc1ccc(CN(C)CCc2ccc(NC(=O)c3cccc4c(=O)c5c(OC)ccc(OC)c5[nH]c34)cc2)cc1OC`, with 196 °C; and `CCn1cc(C(=O)O)c(=O)c2cc(F)c(-c3cc(C)nc(C)c3)cc21`, with greater than 310 °C; and `CC(C)(C)c1cc(NC(=O)Nc2cccc(Cl)c2Cl)c(-c2ccccc2)s1`, with 171 to 173 °C. For `O=c1c2ccc(Cl)cc2[nH]c2c(=O)n(-c3ccc(O)cc3)nc(O)c12`, the melting point is 393 to 395 °C. As to `CN(C)c1nc(Cl)nc(NCC(F)(F)F)n1`, the melting point was 181 to 184 °C.

Regarding `C=CC(O)c1ccc([N+](=O)[O-])cc1` (centres undefined), the melting point turned out to be 55 °C.

For `NS(=O)(=O)c1cc2ccccc2n1S(=O)(=O)c1ccccc1`, the melting point lay within 199 to 200 °C. For the molecule `CCCCCCCCOc1ccc(C(=O)Oc2ccc(C3CCC(O)CC3)cc2)cc1` (centres undefined), the melting point fell in the range of 111 to 112 °C. Consider `Cc1cc(Br)cc(C(=O)Nc2ccc(F)c(C)n2)n1`, for which the melting point came out at 182 °C. Take `COCC(=O)Nc1ccc(C2=NNC(=O)CC2C)cc1` (centres undefined): the melting point turned out to be 212 °C. For `CCN(CC)CCOc1ccc(-c2nnc(CSCCOc3ccccc3)o2)cc1`, the melting point fell in the range of 32 to 35 °C.

The molecule `COc1nsc(S(=O)(=O)c2ccccc2)c1C#N` showed a melting point of 64 °C. For `CN1CC[C@H]2Cc3[nH][nH]c(=O)c3C[C@@H]2C1` (relative stereo), the melting point lay within 245 to 247 °C.

`Cc1cc(-c2ccc(Cl)cc2)nn2c(C)nnc12` came in with a melting point of 209 to 212 °C. For the molecule `COC(=O)C1C(C)=NC(N2CCCCC2)=C(C(=O)OC(C)C)C1c1cccc([N+](=O)[O-])c1` (centres undefined), the melting point is 112 °C.

Turning to `O=C(OCc1ccccc1)N1CCC(c2[nH]c(=O)c3ccccc3c2-c2ccccc2)CC1`, the melting point lay within 276 to 278 °C. `COc1ccc(C(=O)[C@H]2C[C@H]2C(=O)O)cc1` (relative stereo): the melting point is 170 to 172 °C. `CCOC(=O)CCCN(C(=O)CN(C(=O)c1ccc(Cl)cc1)c1c(C)cccc1C)c1c(C)cccc1C` gave a melting point of 150 to 151 °C. Then `N#Cc1cnc2c(-c3ccncc3)c(-c3ccc(F)cc3)nn2c1N`, with greater than 280 °C; and `O=c1c(CCCCc2ccncc2)cc2cccnc2n1-c1cccc([N+](=O)[O-])c1`, with 169 to 170 °C.

Regarding `CCOc1cc2c(c3c1OC(C)(C)C3)C(c1ccccc1)=NC(C)(CN1C(=O)c3ccccc3C1=O)C2` (centres undefined), the melting point is 187 to 189 °C. On to `N#CC(=Cc1cc(O)c(O)c(C#N)c1)C(=O)Nc1cccc(Cl)c1`, for which the melting point is 236 to 240 °C.

For `CC(O)CCCCCCCCc1ccc(O)c(O)c1` (centres undefined), the melting point lay in the range of 43 to 46 °C. In turn, `O=C(O)CCC(O)c1ccc(-c2ccccc2)cc1` (centres undefined) came in with a melting point of 139 to 140 °C.

With `Cc1ccccc1-c1cn(C)cc(-c2cccc(C(F)(F)F)c2)c1=S`, the melting point is 193 to 195 °C.

`Clc1ncc(-c2nc(Cl)nc(Cl)c2Br)c(Cl)n1` displayed a melting point of 136 to 138 °C.

`COc1cc(CC2SC(N3CCCC3)=NC2=O)cc(-c2ccc(O)c(C3(C)CCCCC3)c2)c1` (centres undefined) registered a melting point of 88 to 91 °C. Consider `CC(C)(C)C(Cl)=NNc1ccc([N+](=O)[O-])cc1`, for which the melting point was 94.5 to 95.5 °C. The molecule `N=C(N)c1ccc(-c2ccc(-n3cc(CCC(=O)O)c4ccccc43)nn2)cc1` gave a melting point of 288 to 292 °C. In turn, `COC(=O)Cc1oc2ccc(Cl)cc2c1-c1ccccc1C` registered a melting point of 135 to 136 °C. Molecule `O=c1[nH]c2cc(Cl)c(Cl)c(Cn3cncn3)c2[nH]c1=O` returned a melting point greater than 320 °C. As for `BrCc1nc2cc(Br)ccc2s1`, the melting point was found to be 107 °C. As to `O=c1nc(NCc2ccc(Cl)cc2)n2c3c1cnn3C(c1cccc(C(F)(F)F)c1)=CC2`, the melting point fell in the range of 281 to 282 °C. Molecule `CC(C)(C)OC(=O)NCCNC(=O)c1ccc(CO)cc1` yielded a melting point of 117 to 119 °C.

On to `COc1cnn(CN(C(=O)CCl)c2c(C)cccc2C)c1`, for which the melting point was in the range of 115 to 116 °C. Then `CC(C)N1C(=O)N(c2ccc([N+](=O)[O-])c(C(F)(F)F)c2)C(=O)C1(C)C`, with 130 °C; and `COc1ccc2c(c1O)NC(OC)C1CCCN1C2=O` (centres undefined), with 154 to 156 °C; and `O=C(NCCCCCC(=O)C(F)(F)F)OCC1c2ccccc2-c2ccccc21`, with 83 to 88 °C.
